{
  "source": "ChEMBL document CHEMBL1158920",
  "about": "“Tubulosine: an antitumor constituent of Pogonopus speciosus” (J Nat Prod, 1990)",
  "key": {"Artemia": {"test_system": "Artemia", "assay": "Toxicity in brine shrimp", "format": "organism-based", "details": "in vivo"}, "[1]": {"assay": "Cytotoxicity against mouse 9PS cells", "format": "functional"}, "A549": {"test_system": "A549", "assay": "Cytotoxicity against human A549 cells", "format": "functional"}, "MCF7": {"test_system": "MCF7", "assay": "Cytotoxicity against human MCF7 cells", "format": "functional"}, "HT-29": {"test_system": "HT-29", "assay": "Cytotoxicity against human HT-29 cells", "format": "functional"}, "[2]": {"test_system": "Agrobacterium tumefaciens", "assay": "Antitumor activity against Agrobacterium tumefaciens-induced crown gall tumors in potato by disk test", "format": "functional"}, "[3]": {"assay": "Cytotoxicity against human 9KB cells", "format": "functional", "details": "read-out: ED50 (the source's name)"}, "[4]": {"assay": "In vivo antitumor activity against mouse 3PS cells at 0.25 mg/kg, relative to control", "format": "functional"}},
  "data": [
    {"smiles": "CC[C@H]1CN2CCc3cc(OC)c(OC)cc3[C@@H]2C[C@@H]1CC1=NCCc2cc(O)c(OC)cc21", "note": "[PSYCHOTRINE]", "values": [
      {"measurement": "LC50", "setting": "Artemia", "value": "> 1000", "unit": "ppm"},
      {"measurement": "EC50", "setting": "[1]; Mus musculus, read-out: ED50 (the source's name)", "value": 1, "unit": "µg/mL"},
      {"measurement": "EC50", "setting": "A549; Homo sapiens, A549, read-out: ED50 (the source's name)", "value": "> 10", "unit": "µg/mL"},
      {"measurement": "EC50", "setting": "MCF7; Homo sapiens, MCF7, read-out: ED50 (the source's name)", "value": "> 10", "unit": "µg/mL"},
      {"measurement": "EC50", "setting": "HT-29; Homo sapiens, HT-29, read-out: ED50 (the source's name)", "value": "> 10", "unit": "µg/mL"}
    ]},
    {"smiles": "CC[C@H]1CN2CCc3cc(OC)c(OC)cc3[C@@H]2C[C@@H]1C[C@H]1NCCc2c1[nH]c1ccc(O)cc21", "note": "[TUBULOSINE]", "values": [
      {"measurement": "LC50", "setting": "Artemia", "value": 0.02, "unit": "ppm"},
      {"measurement": "inhibition (INH)", "setting": "[2]", "value": 81, "unit": "%"},
      {"measurement": "ED50", "setting": "[1]", "value": 3.8, "unit": "×10⁻⁴ ug/ml"},
      {"measurement": "EC50", "setting": "[3]", "value": 0.01, "unit": "µg/mL"},
      {"measurement": "ED50", "setting": "A549", "value": "<1", "unit": "×10⁻⁵ ug/ml"},
      {"measurement": "ED50", "setting": "MCF7", "value": "<1", "unit": "×10⁻⁵ ug/ml"},
      {"measurement": "ED50", "setting": "HT-29", "value": "<1", "unit": "×10⁻⁵ ug/ml"},
      {"measurement": "T/C", "setting": "[4]", "value": 186, "unit": "%"}
    ]}
  ]
}
